Laboratory results taken from PubChem BioAssay (NCI).
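Exposure lasted 48 hours, with cells grown in 96-well plates and compounds tested at five concentrations. GI50 marks 50% less growth. TGI: concentration producing complete growth inhibition.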

Assays:
Assay in all cases: DTP human tumour cell line panel, 48 h
[1] = test system: CCRF-CEM leukemia
[2] = test system: HCT-15 colon
[3] = test system: HT29 colon
[4] = test system: IGROV1 ovarian
[5] = test system: LOX IMVI melanoma
[6] = test system: OVCAR-8 ovarian
[7] = test system: SNB-19 CNS
[8] = test system: SW-620 colon
[9] = test system: UACC-62 melanoma
[10] = test system: DU-145 prostate

| Compound | TGI [1] | TGI [2] | TGI [3] | TGI [4] | TGI [5] | TGI [6] | TGI [7] | TGI [8] | TGI [9] | TGI [10] | GI50 [9] | GI50 [10] | GI50 [2] | GI50 [3] | GI50 [4] | GI50 [5] | GI50 [6] | GI50 [7] | GI50 [8] |
| --- | --- | --- | --- | --- | --- | --- | --- | --- | --- | --- | --- | --- | --- | --- | --- | --- | --- | --- | --- |
| O=C(CC(=O)N1N=C(n2ccc3ccccc32)CC1c1ccccc1)Nc1ccccc1Cl (centres undefined) | > 100 µM | > 100 µM | > 100 µM | > 100 µM | > 100 µM | > 100 µM | > 100 µM | > 100 µM | > 100 µM | – | – | – | – | – | – | – | – | – | – |
| CC1CN1c1c(C(=O)/C=C/c2ccc(F)cc2)c(-c2ccccc2)nn(C)c1=O (centres undefined) | 48.8 µM | – | 30.9 µM | 40.2 µM | 26.9 µM | 27.6 µM | 30.3 µM | 32.7 µM | 27.6 µM | – | – | – | – | – | – | – | – | – | – |
| N#CC(Cl)CS(=O)(=O)c1ccccc1 (centres undefined) | – | 5.38 µM | 53.1 µM | 38 µM | 22 µM | 11.1 µM | 35.1 µM | 3.75 µM | 26.5 µM | 32.4 µM | – | – | – | – | – | – | – | – | – |
| CCP(C)(=O)CC | > 100 µM | > 100 µM | > 100 µM | > 100 µM | > 100 µM | > 100 µM | > 100 µM | > 100 µM | > 100 µM | – | – | – | – | – | – | – | – | – | – |
| COC(=O)C1=C(C)N(NC(N)=O)C2(N)N(NC(N)=O)C(C)=C(C(=O)OC)C12C#N (centres undefined) | > 100 µM | > 100 µM | > 100 µM | > 100 µM | > 100 µM | > 100 µM | > 100 µM | > 100 µM | > 100 µM | – | – | – | – | – | – | – | – | – | – |
| CC(C)(C)c1cc(Cc2ccc(S(C)(=O)=O)cc2)c(O)c(C(C)(C)C)c1 | 30.5 µM | 31 µM | 28.6 µM | 28.3 µM | 27.7 µM | 28.1 µM | 29 µM | 31.2 µM | 26 µM | – | – | – | – | – | – | – | – | – | – |
| CC(=O)[CH-]C(=O)c1ccccc1.CC(=O)[CH-]C(=O)c1ccccc1.CC[C@H](CCC(C)[C@H]1CCC2[C@@H]3CC=C4C[C@@H]([O-])CC[C@]4(C)C3CC[C@@]21C)C(C)C.CC[C@H](CCC(C)[C@H]1CCC2[C@@H]3CC=C4C[C@@H]([O-])CC[C@]4(C)C3CC[C@@]21C)C(C)C.Cl.[Ti+4] (some centres undefined) | > 25 µM | > 25 µM | > 25 µM | > 25 µM | > 25 µM | > 25 µM | > 25 µM | > 25 µM | > 25 µM | – | > 25 µM | – | – | – | – | – | – | – | – |
| c1ccc(-c2sc(-c3ccccc3)c3c2C(c2ccccc2)c2c(-c4ccccc4)sc(-c4ccccc4)c2C3c2ccccc2)cc1 (centres undefined) | > 100 µM | > 100 µM | > 100 µM | > 100 µM | > 100 µM | > 100 µM | > 100 µM | > 100 µM | > 100 µM | – | – | – | – | – | – | – | – | – | – |
| Cc1cc(C)c([O-])c(-[n+]2c(-c3ccccc3)cc(-c3ccccc3)cc2-c2ccccc2)c1 | 10.1 µM | 25.4 µM | 12.2 µM | 19.9 µM | 11.1 µM | 17.7 µM | 21 µM | 15.7 µM | 12.5 µM | – | – | – | – | – | – | – | – | – | – |
| CN1CCN(CCCCCOc2cc(O)c3c(=O)cc(-c4ccccc4)oc3c2)CC1 | – | 4.02 µM | 8.12 µM | 5.64 µM | 2.95 µM | 91.7 µM | 22.3 µM | 7.53 µM | 3.26 µM | > 100 µM | 1.86 µM | 10.5 µM | 1.79 µM | 2.86 µM | 2.41 µM | 1.6 µM | 15.7 µM | 4.11 µM | 2.61 µM |
